Patent US20080090734A1, “DRUG SCREENING AND TARGET IDENTIFICATION USING SPR IMAGING OF TARGET PROTEIN ARRAYS” (The Trustees of California State University, priority 2006, published 2008)

Key:
Experiment in all cases: Antibiotic susceptibility profile
Type in all cases: cell-based, Acinetobacter baumannii
Design in all cases: key: Resistance; Intermediate; Susceptible
[1] = test system: A. baumannii reference strain 15839; details: strain 15839 (ATCC)
Description: (§1) We obtained over thirty clinical isolates of A. baumannii from nosocomial infections in New York City and Los Angeles. […] Only antibiotics with breakpoints for A. baumannii were used. […] Isolates LA 01 to 20 were acquired from Los Angels County while NY-A to NY-H were obtained from New York City.
(§2) Antibiotic susceptibility profiles of clinical isolates of A. baumannii and reference strains. R, I, and S denote Resistance, Intermediate and Susceptible, respectively. Genetic Profiling of Clinical Isolates of A. baumannii

[2] = test system: A. baumannii clinical isolate LAC 11
Description: as §1, §2

[3] = test system: A. baumannii clinical isolate LAC 08
Description: as §1, §2

[4] = test system: A. baumannii clinical isolate LAC 02
Description: as §1, §2

[5] = test system: A. baumannii clinical isolate LAC 03
Description: as §1, §2

[6] = test system: A. baumannii clinical isolate NY G
Description: as §1, §2

[7] = test system: A. baumannii clinical isolate LAC 06
Description: as §1, §2

[8] = test system: A. baumannii clinical isolate LAC 05
Description: as §1, §2

[9] = test system: A. baumannii clinical isolate LAC 10
Description: as §1, §2

[10] = test system: A. baumannii clinical isolate LAC 12
Description: as §1, §2

[11] = test system: A. baumannii clinical isolate LAC 09
Description: as §1, §2

[12] = test system: A. baumannii clinical isolate LAC 19
Description: as §1, §2

[13] = test system: A. baumannii clinical isolate LAC 04
Description: as §1, §2

[14] = test system: A. baumannii clinical isolate LAC 07
Description: as §1, §2

[15] = test system: A. baumannii clinical isolate NY F
Description: as §1, §2

[16] = test system: A. baumannii clinical isolate LAC 01
Description: as §1, §2

[17] = test system: A. baumannii clinical isolate LAC 20
Description: as §1, §2

[18] = test system: A. baumannii clinical isolate LAC 17
Description: as §1, §2

[19] = test system: A. baumannii reference strain 17978; details: strain 17978 (ATCC)
Description: as §1, §2

[20] = test system: A. baumannii reference strain 19606; details: strain 19606 (ATCC)
Description: as §1, §2

[21] = test system: A. baumannii clinical isolate NY C
Description: as §1, §2

[22] = test system: A. baumannii clinical isolate NY H
Description: as §1, §2

[23] = test system: A. baumannii clinical isolate NY D
Description: as §1, §2

[24] = test system: A. baumannii clinical isolate LAC 16
Description: as §1, §2

[25] = test system: A. baumannii clinical isolate LAC 13
Description: as §1, §2

[26] = test system: A. baumannii reference strain AYE
Description: as §1, §2

[27] = test system: A. baumannii clinical isolate NY B
Description: as §1, §2

[28] = test system: A. baumannii clinical isolate NY E
Description: as §1, §2

[29] = test system: A. baumannii clinical isolate LAC 18
Description: as §1, §2

[30] = test system: A. baumannii clinical isolate LAC 15
Description: as §1, §2

[31] = test system: A. baumannii clinical isolate LAC 14
Description: as §1, §2

[32] = test system: A. baumannii clinical isolate NY A
Description: as §1, §2

[33] = test system: A. baumannii reference strain SDF
Description: as §1, §2

SMILES | Antibiotic susceptibility [1] | Antibiotic susceptibility [2] | Antibiotic susceptibility [3] | Antibiotic susceptibility [4] | Antibiotic susceptibility [5] | Antibiotic susceptibility [6] | Antibiotic susceptibility [7] | Antibiotic susceptibility [8] | Antibiotic susceptibility [9] | Antibiotic susceptibility [10] | Antibiotic susceptibility [11] | Antibiotic susceptibility [12] | Antibiotic susceptibility [13] | Antibiotic susceptibility [14] | Antibiotic susceptibility [15] | Antibiotic susceptibility [16] | Antibiotic susceptibility [17] | Antibiotic susceptibility [18] | Antibiotic susceptibility [19] | Antibiotic susceptibility [20] | also measured
CN(C)[C@@H]1C(O)=C(C(N)=O)C(=O)[C@@]2(O)C(O)=C3C(=O)c4c(O)cccc4[C@@](C)(O)[C@H]3C[C@@H]12 [TET, Tetracycline] | R | R | R | R | R | R | R | R | R | R | R | I | I | R | R | R | R | R | S | I | Antibiotic susceptibility [21]: R; Antibiotic susceptibility [22]: R; Antibiotic susceptibility [23]: R; Antibiotic susceptibility [24]: I; Antibiotic susceptibility [25]: R; Antibiotic susceptibility [26]: R; Antibiotic susceptibility [27]: R; Antibiotic susceptibility [28]: R; Antibiotic susceptibility [29]: R; Antibiotic susceptibility [30]: R; Antibiotic susceptibility [31]: R; Antibiotic susceptibility [32]: I; Antibiotic susceptibility [33]: I
CCN1CCN(C(=O)N[C@@H](C(=O)N[C@@H]2C(=O)N3[C@@H]2SC(C)(C)[C@@H]3C(=O)O)c2ccccc2)C(=O)C1=O [PIP, Piperacillin] | I | R | I | R | R | R | S | I | R | R | R | R | R | R | R | R | R | R | S | I | Antibiotic susceptibility [21]: R; Antibiotic susceptibility [22]: R; Antibiotic susceptibility [23]: R; Antibiotic susceptibility [24]: R; Antibiotic susceptibility [25]: R; Antibiotic susceptibility [26]: R; Antibiotic susceptibility [27]: R; Antibiotic susceptibility [28]: R; Antibiotic susceptibility [29]: R; Antibiotic susceptibility [30]: R; Antibiotic susceptibility [31]: R; Antibiotic susceptibility [32]: R; Antibiotic susceptibility [33]: R
CO/N=C(\C(=O)N[C@@H]1C(=O)N2C(C(=O)O)=C(CSc3nc(=O)c(=O)[nH]n3C)CS[C@H]12)c1csc(N)n1 [CRO, Ceftriaxone] | R | R | I | R | R | R | R | I | R | R | R | R | R | R | R | R | R | R | S | I | Antibiotic susceptibility [21]: R; Antibiotic susceptibility [22]: R; Antibiotic susceptibility [23]: R; Antibiotic susceptibility [24]: R; Antibiotic susceptibility [25]: R; Antibiotic susceptibility [26]: R; Antibiotic susceptibility [27]: R; Antibiotic susceptibility [28]: I; Antibiotic susceptibility [29]: R; Antibiotic susceptibility [30]: R; Antibiotic susceptibility [31]: R; Antibiotic susceptibility [32]: R; Antibiotic susceptibility [33]: I
